Laboratory results published in US20230129866A1 (PureTech LYT 100, Inc., priority 2020, published 2023).
Read-outs that look alike come from different tables or passages of the source.

Key:
[1] = 91-day repeat dose oral toxicity and toxicokinetics study in rats; conditions: for Ratio of exposure (AUC), Group 4 (LYT-100 at 750 mg/kg) analyte / Group 5 (SD-559 at 750 mg/kg) analyte: LYT-100/SD-559, SD-790/SD-788, SD-1051/SD-1050, SD-789 Group 4/SD-789 Group 5; for Cmax in rat relative to human: male rat Day 1 vs human; for Exposure in rats relative to humans after 28 days of daily dosing: male rat Day 28 vs human; for Exposure (AUC) in rat relative to human: male rats 750 mg/kg Day 1 vs human single 801 mg dose; for Dose proportionality of AUC0-24 over 250 to 750 mg/kg / Dose proportionality of Cmax over 250 to 750 mg/kg: rats dosed with SD-560, Groups 2 to 4, general statement
Method: The original male TK animals received 1000 mg/kg of SD-559 on Day 1 and continued on study. The protocol was amended to add additional TK male animals in Group 6 for Day 1 collection of TK samples at 875 mg/kg.
Blood samples were collected from 3 subsets of 3 animals/sex on Day 1 and Day 28 at pre-dose, 0.25, 0.5, 1, 2, 4. 8 and 24 hours (hr) post-dose for groups 2 to 6 and from one subset of 3 animals/sex at 0.25 hr post-dose for the vehicle group (group 1). […] Non-compartmental analysis (NCA) of plasma concentration data was conducted using Phoenix® WinNonlin®, version 8.0.

[2] = Phase 1 multiple ascending dose (MAD) study Part 1, healthy volunteers (PK and safety); conditions: for Accumulation ratios (AUC96-108/AUC0-12) across all dose groups: 100 mg, 250 mg, 500 mg, and 750 mg BID, Cohorts 1-4, FIG. 19; for Average ratio to the parent (M/P) by AUC: range in brackets
Method: Up to 5 dosing cohorts are planned in Part 1.
Additional cohorts and intermediate doses may be selected in lieu of predefined doses as noted and in accordance with safety and tolerability responses, but doses will not exceed 1000 mg BID or a total daily dose of 2000 mg.
A standardised lunch will be served ≥4 h post breakfast and ≥4 h prior to dinner. An evening snack will be served ≥3 h following evening study medication administration. No additional fluids will be allowed during the 1 h pre- and post-doses. On Day 6, subjects will replicate mealtimes as scheduled on Day 1-5.
Plasma PK parameters (non-compartmental or compartmental analysis as appropriate) will include, but are not limited to: • Following single dose: Tmax, tlag, Cmax, AUC0-4, AUC0-last, t1/2, AUC0-inf, lambda z, %AUCext, CL/F, Vz/F, Cmax/D, AUC0-last/D, AUC0-inf/D and MRT (D is dose) • After repeated doses: Ctrough, Ctrough/D • Following repeated doses on last day: Tmax, Cmax, Cavg, tlag, t1/2, AUC0-4, AUC0-last; AUC0-inf, lambda z, %AUCext, CLss/F, Vzss/F, MRT, PTF, Rac(AUC), Rac(Cmax), Cmax/D, AUClast/D, AUC0-inf/D and Rae (accumulation ratio).

[3] = humans, cited from earlier work
[4] = 200 mg SD-559 (pirfenidone) BID, Huang et al.; in ng/mL; cited from earlier work
[5] = Single 801 mg dose, double-blinded, cross-over study of LYT-100 vs pirfenidone in healthy volunteers (PK and safety); conditions: for Cmax (ng/mL), Mean / AUC0-t (hr*ng/mL), Mean / tmax (hr), Median / % AUC extrap, Mean / AUC(inf) (hr*ng/mL), Mean / Kel (1/hr), Mean / t1/2 (hr), Mean: fed; for Cmax (ng/mL), Mean: healthy volunteers; for Cmax (ng/mL), Mean / AUC0-t (hr*ng/mL), Mean / tmax (hr), Median: n = 24
Text: Following screening, eligible healthy volunteer subjects were admitted to a single clinical study site and were randomized to 1 of 2 treatment sequences. […] In each period, a standardized breakfast was provided to subjects prior to administration of study drug (to compare the PK profiles in the clinically relevant fed state) and plasma samples were collected over a 48-hour period after dosing for evaluation of PK. Dosing between the 2 periods was separated by a minimum of 7 days. Subjects completed the study upon completion of the 48-hour post-dose assessments following dosing period 2.
All capsules were identical in size, shape, and external color.

[6] = Phase 1 food effect study Part 2 (Cohort 5), single 500 mg dose fed vs fasted; type: in vivo, human; conditions: LYT-100 @500 mg single dose
Method: The comparison will be based on Day 1, Day 2 and Day 3 PK plasma samples after the first dose of study drug on Day 1 under fast and fed conditions of Part 2.
Subjects will be admitted to the CRU on Day-1 and will fast overnight for at least 10 h.

[7] = Treatment = LYT-100, single 801 mg oral dose
[8] = Treatment = LYT-100, single 801 mg oral dose, n = 24 (LYT-110 n = 23)
[9] = Treatment = Pirfenidone, single 801 mg oral dose
[10] = Treatment = Pirfenidone, single 801 mg oral dose, n = 24 (LYT-111 n = 19)
[11] = after LYT-100 801 mg, metabolite/LYT-100
[12] = after LYT-100 801 mg, metabolite/LYT-100, molecular weight corrected
[13] = after Pirfenidone (LYT-101) 801 mg, metabolite/LYT-101
[14] = after Pirfenidone (LYT-101) 801 mg, metabolite/LYT-101, molecular weight corrected

## O=C(O)c1ccc(=O)n(-c2ccccc2)c1 [LYT-105, 5-carboxy-pirfenidone]
[1]; Day 1, Female rats
  Ratio of exposure (AUC), Group 4 (LYT-100 at 750 mg/kg) analyte / Group 5 (SD-559 at 750 mg/kg) analyte: 0.49
[1]; Day 1, Male rats
  Ratio of exposure (AUC), Group 4 (LYT-100 at 750 mg/kg) analyte / Group 5 (SD-559 at 750 mg/kg) analyte: 0.45
[1]; Day 28, Female rats
  Ratio of exposure (AUC), Group 4 (LYT-100 at 750 mg/kg) analyte / Group 5 (SD-559 at 750 mg/kg) analyte: 0.71
[1]; Day 28, Male rats
  Ratio of exposure (AUC), Group 4 (LYT-100 at 750 mg/kg) analyte / Group 5 (SD-559 at 750 mg/kg) analyte: 0.57
[1]
  Cmax in rat relative to human: ~9 fold
  Exposure in rats relative to humans after 28 days of daily dosing: ~7 fold
  Exposure (AUC) in rat relative to human: about 8 fold
  Dose proportionality of AUC0-24 over 250 to 750 mg/kg: dose proportional
  Dose proportionality of Cmax over 250 to 750 mg/kg: approximately dose proportional
[1]; rats, 750 mg/kg each
  Lower Cmax and exposure of SD-789 after SD-560 than of SD-789 after SD-559: approximately 50%
[2]
  Accumulation ratios (AUC96-108/AUC0-12) across all dose groups: ~1
[2]; 100 to 1000 mg BID, FIG. 25
  Dose dependence of AUC96-108 across all dose Cohorts: linear dose proportionality
[2]; Cohort 4, 750 mg BID
  Average ratio to the parent (M/P) by AUC: 0.45 (0.37-0.50)
[2]; Cohort 6, 1000 mg BID
  Average ratio to the parent (M/P) by AUC: 0.56 (0.44-0.66)
[2]; LYT-100 100 mg BID with food
  observed Cmax: 567 ng/mL
[2]; LYT-100 100 mg vs Huang et al. data extrapolated assuming dose proportionality, LYT-100 vs SD-559, SD-789 vs SD-789
  % difference (vs. 200 mg SD-559) Cmax: −23%
[2]; LYT-100 250 mg BID with food
  observed Cmax: 1170 ng/mL
[2]; LYT-100 250 mg vs Huang et al. data extrapolated assuming dose proportionality
  % difference (vs. 200 mg SD-559) Cmax: −37%
[2]; LYT-100 500 mg BID with food
  observed Cmax: 2360 ng/mL
[2]; LYT-100 500 mg vs Huang et al. data extrapolated assuming dose proportionality
  % difference (vs. 200 mg SD-559) Cmax: −36%
[2]; LYT-100 750 mg BID with food
  observed Cmax: 3370 ng/mL
[2]; LYT-100 750 mg vs Huang et al. data extrapolated assuming dose proportionality
  % difference (vs. 200 mg SD-559) Cmax: −39%
[2]; LYT-100 1000 mg BID with food
  observed Cmax: 4940 ng/mL
[2]; LYT-100 1000 mg vs Huang et al. data extrapolated assuming dose proportionality
  % difference (vs. 200 mg SD-559) Cmax: −33%
[2]; MAD study, all doses
  Average ratio of metabolite to the parent (mtp) by AUC: 0.45
[3]; Huang 2013
  Plasma exposure as percent of the exposure to pirfenidone: approximately 50%
[3]; urine, after oral pirfenidone
  Share of recovered drug material excreted as this metabolite: > 95%
[4]
  observed Cmax: 1476
[5]; [7]
  Cmax (ng/mL), Mean: 3970 ng/mL
  AUC0-t (hr*ng/mL), Mean: 23090 ng·h/mL
  tmax (hr), Median: 2.50 h
[5]; [8]
  % AUC extrap, Mean: 1.13%
  AUC(inf) (hr*ng/mL), Mean: 23350 ng·h/mL
  Kel (1/hr), Mean: 0.262 h⁻¹
  t1/2 (hr), Mean: 2.91 h
[5]; [9]
  Cmax (ng/mL), Mean: 5241 ng/mL
  AUC0-t (hr*ng/mL), Mean: 26932 ng·h/mL
  tmax (hr), Median: 3.00 h
[5]; [10]
  % AUC extrap, Mean: 0.843%
  AUC(inf) (hr*ng/mL), Mean: 27159 ng·h/mL
  Kel (1/hr), Mean: 0.288 h⁻¹
  t1/2 (hr), Mean: 2.55 h
[5]; [11]
  Metabolite/Parent Ratio, AUC0-∞, Median: 32.3%
  Metabolite/Parent Ratio, Cmax, Median: 33.5%
[5]; [12]
  Metabolite/Parent Ratio, AUC0-∞, Mean: 43.8%
  Metabolite/Parent Ratio, Cmax, Mean: 43.3%
[5]; after LYT-100 801 mg, metabolite/LYT-100, molecular weight corrected, listed as 5-carboxy-pirfenidone
  Metabolite/Parent Ratio, AUC0-∞, Mean: 43.8%
[5]; [13]
  Metabolite/Parent Ratio, AUC0-∞, Median: 53.7%
  Metabolite/Parent Ratio, Cmax, Median: 57.5%
[5]; [14]
  Metabolite/Parent Ratio, AUC0-∞, Mean: 65.9%
  Metabolite/Parent Ratio, Cmax, Mean: 68.1%
[5]; after Pirfenidone (LYT-101) 801 mg, metabolite/LYT-101, molecular weight corrected, listed as 5-carboxy-pirfenidone
  Metabolite/Parent Ratio, AUC0-∞, Mean: 65.9%
[5]; single 801 mg dose each
  Reduction of AUC after LYT-100 relative to pirfenidone: approximately 15%
  Reduction of Cmax after LYT-100 relative to pirfenidone: ~25%
[6]
  AUC, % Change Fed vs Fasted: −5%
  Cmax, % Change Fed vs Fasted: −1.7%
  Tmax, % Change Fed vs Fasted: +33%

## O=c1ccc(CO)cn1-c1ccccc1 [SD-788, 5-hydroxymethyl-pirfenidone]
[5]; LYT-100 vs pirfenidone, single 801 mg dose
  Formation greater in terms of overall systemic exposure (AUC) after administration of LYT-100: approximately 50%
[5]; [9]
  Cmax (ng/mL), Mean: 17.1 ng/mL
  AUC0-t (hr*ng/mL), Mean: 75.8 ng·h/mL
  tmax (hr), Median: 2.50 h
[5]; [10]
  % AUC extrap, Mean: 10.3%
  AUC(inf) (hr*ng/mL), Mean: 89.7 ng·h/mL
  Kel (1/hr), Mean: 0.367 h⁻¹
  t1/2 (hr), Mean: 2.04 h
[5]; [13]
  Metabolite/Parent Ratio, AUC0-∞, Median: 0.2%
  Metabolite/Parent Ratio, Cmax, Median: 0.2%
[5]; [14]
  Metabolite/Parent Ratio, AUC0-∞, Mean: 0.2%
  Metabolite/Parent Ratio, Cmax, Mean: 0.2%

## [2H]C([2H])(O)c1ccc(=O)n(-c2ccccc2)c1 [SD-790, d2-5-hydroxymethyl-pirfenidone]
[1]; Day 1, Female rats
  Ratio of exposure (AUC), Group 4 (LYT-100 at 750 mg/kg) analyte / Group 5 (SD-559 at 750 mg/kg) analyte: 2.50
[1]; Day 1, Male rats
  Ratio of exposure (AUC), Group 4 (LYT-100 at 750 mg/kg) analyte / Group 5 (SD-559 at 750 mg/kg) analyte: 2.22
[1]; Day 28, Female rats
  Ratio of exposure (AUC), Group 4 (LYT-100 at 750 mg/kg) analyte / Group 5 (SD-559 at 750 mg/kg) analyte: 2.59
[1]; Day 28, Male rats
  Ratio of exposure (AUC), Group 4 (LYT-100 at 750 mg/kg) analyte / Group 5 (SD-559 at 750 mg/kg) analyte: 2.54
[1]
  Cmax in rat relative to human: ~1825 fold
  Exposure in rats relative to humans after 28 days of daily dosing: ~1600 fold
  Exposure (AUC) in rat relative to human: about 1250 fold
  Dose proportionality of AUC0-24 over 250 to 750 mg/kg: dose proportional
  Dose proportionality of Cmax over 250 to 750 mg/kg: dose proportional
[1]; rats, 750 mg/kg each, all days, both genders
  Exposure and Cmax vs the non-deuterated corresponding metabolite (SD-788) from SD-559: almost twice
[2]
  Accumulation ratios (AUC96-108/AUC0-12) across all dose groups: ~1
[2]; Cohort 4, 750 mg BID
  Average ratio to the parent (M/P) by AUC: 0.0025 (0.0020-0.0029)
[2]; Cohort 6, 1000 mg BID
  Average ratio to the parent (M/P) by AUC: 0.0028 (0.0018-0.0038)
[5]; [7]
  Cmax (ng/mL), Mean: 20.6 ng/mL
  AUC0-t (hr*ng/mL), Mean: 111 ng·h/mL
  tmax (hr), Median: 2.50 h
[5]; [8]
  % AUC extrap, Mean: 10.1%
  AUC(inf) (hr*ng/mL), Mean: 124 ng·h/mL
  Kel (1/hr), Mean: 0.294 h⁻¹
  t1/2 (hr), Mean: 2.76 h
[5]; [11]
  Metabolite/Parent Ratio, AUC0-∞, Median: 0.2%
  Metabolite/Parent Ratio, Cmax, Median: 0.2%
[5]; [12]
  Metabolite/Parent Ratio, AUC0-∞, Mean: 0.2%
  Metabolite/Parent Ratio, Cmax, Mean: 0.2%

## Cc1ccc(=O)n(-c2ccc(O)cc2)c1 [SD-1050, 4′-hydroxy-pirfenidone]
[5]; [13]
  Metabolite/Parent Ratio, Cmax, Median: 0.0%
[5]; [14]
  Metabolite/Parent Ratio, Cmax, Mean: 0.0%

## [2H]C([2H])([2H])c1ccc(=O)n(-c2ccc(O)cc2)c1 [SD-1051, d3-4′-hydroxy-pirfenidone]
[1]; Day 1, Female rats
  Ratio of exposure (AUC), Group 4 (LYT-100 at 750 mg/kg) analyte / Group 5 (SD-559 at 750 mg/kg) analyte: 21.77
[1]; Day 1, Male rats
  Ratio of exposure (AUC), Group 4 (LYT-100 at 750 mg/kg) analyte / Group 5 (SD-559 at 750 mg/kg) analyte: 34.51
[1]; Day 28, Female rats
  Ratio of exposure (AUC), Group 4 (LYT-100 at 750 mg/kg) analyte / Group 5 (SD-559 at 750 mg/kg) analyte: 38.04
[1]
  Dose proportionality of AUC0-24 over 250 to 750 mg/kg: increased dose proportionally on Day 1
  Dose proportionality of Cmax over 250 to 750 mg/kg: less than dose proportional
[2]
  Accumulation ratios (AUC96-108/AUC0-12) across all dose groups: ~1
[2]; Cohort 4, 750 mg BID
  Average ratio to the parent (M/P) by AUC: 0.0017 (0.0012-0.0022)
[2]; Cohort 6, 1000 mg BID
  Average ratio to the parent (M/P) by AUC: 0.0037 (0.0030-0.0058)
[5]; after LYT-100
  Quantifiability in human plasma: not quantifiable
[5]; [11]
  Metabolite/Parent Ratio, AUC0-∞, Median: 0.1%
  Metabolite/Parent Ratio, Cmax, Median: 0.1%
[5]; [12]
  Metabolite/Parent Ratio, AUC0-∞, Mean: 0.1%
  Metabolite/Parent Ratio, Cmax, Mean: 0.1%
